Consider one molecule from PMC9663175, “Cryo-EM structures reveal the activation and substrate recognition mechanism of human enteropeptidase” (Nature Communications, 2022).

One may read the Kd as the constant that tells how readily two partners part at equilibrium. Higher therefore signals lower affinity.

The target in this experiment is human enteropeptidase (hEP), enterokinase (Homo sapiens, UniProt P98073). The experiment can be described thus: cryo-EM structure of inhibited hEP-core ([…] Å); SPR affinity; enzyme activity inhibition. It counts as binding. Also noted: gene TMPRSS15; hEP-core resolved; SPR: commercial hEP.
Sequence of human enteropeptidase (hEP), enterokinase (P98073 182-784): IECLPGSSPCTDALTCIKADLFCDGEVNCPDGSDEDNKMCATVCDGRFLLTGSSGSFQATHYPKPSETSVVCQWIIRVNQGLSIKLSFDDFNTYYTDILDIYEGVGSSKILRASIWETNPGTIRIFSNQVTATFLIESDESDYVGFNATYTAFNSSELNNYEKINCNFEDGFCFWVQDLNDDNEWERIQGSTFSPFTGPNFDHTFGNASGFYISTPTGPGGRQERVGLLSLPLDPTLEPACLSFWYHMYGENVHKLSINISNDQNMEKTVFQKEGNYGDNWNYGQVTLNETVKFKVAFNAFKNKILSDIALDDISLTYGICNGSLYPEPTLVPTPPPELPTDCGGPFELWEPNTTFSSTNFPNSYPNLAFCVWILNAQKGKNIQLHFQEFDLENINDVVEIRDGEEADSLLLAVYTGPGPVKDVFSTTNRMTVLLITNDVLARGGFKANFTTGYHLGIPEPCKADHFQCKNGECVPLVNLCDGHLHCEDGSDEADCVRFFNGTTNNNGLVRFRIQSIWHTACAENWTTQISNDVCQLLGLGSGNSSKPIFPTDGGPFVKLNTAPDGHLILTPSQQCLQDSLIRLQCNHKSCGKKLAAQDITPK
Sequence of human enteropeptidase (hEP), enterokinase (P98073 785-1019): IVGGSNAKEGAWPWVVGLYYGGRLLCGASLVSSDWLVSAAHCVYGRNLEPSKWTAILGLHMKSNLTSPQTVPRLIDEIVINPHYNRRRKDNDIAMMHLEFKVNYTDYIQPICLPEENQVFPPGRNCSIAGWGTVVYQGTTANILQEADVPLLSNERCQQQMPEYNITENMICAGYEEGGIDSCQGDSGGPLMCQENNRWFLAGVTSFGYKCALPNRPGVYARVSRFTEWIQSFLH

For the molecule `N=C(N)c1ccc2cc(OC(=O)c3ccc(N=C(N)N)cc3)ccc2c1` [nafamostat], the equilibrium dissociation constant (Kd) came out at 95.1 µM.
